The target in one experiment is T1, SF-rFVIIa (Homo sapiens, UniProt P08709).
T1 construct: made in house
T1 sequence (P08709 213-466 limits assumed): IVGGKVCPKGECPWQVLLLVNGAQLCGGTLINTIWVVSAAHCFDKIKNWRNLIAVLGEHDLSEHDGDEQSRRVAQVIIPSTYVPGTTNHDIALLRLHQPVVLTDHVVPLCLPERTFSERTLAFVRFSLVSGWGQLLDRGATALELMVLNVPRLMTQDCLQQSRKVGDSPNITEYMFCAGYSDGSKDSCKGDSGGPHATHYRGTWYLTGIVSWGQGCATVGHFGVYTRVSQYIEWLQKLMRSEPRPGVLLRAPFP
T1 sequence (P08709 61-212 limits assumed): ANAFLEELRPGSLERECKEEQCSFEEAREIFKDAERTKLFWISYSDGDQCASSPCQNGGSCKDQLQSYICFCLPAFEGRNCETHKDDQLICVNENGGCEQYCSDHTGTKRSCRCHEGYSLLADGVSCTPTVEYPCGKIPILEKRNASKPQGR
Description: Isothermal titration calorimetry (iTC200) binding to SF-rFVIIa. To be noted: for Kd: SF-rFVIIa. On the procedure:
(§1) All proteases were dialyzed extensively in binding buffer: 10 mM HEPES pH 7.4, 150 mM NaCl, 0.005% v/v Surfactant P20, 5 mM CaCl2. All binding experiments were carried out in binding buffer unless otherwise indicated. The active site stabilizing agent set forth Formula I was dissolved in 50 mM Tris pH 8.0 to a final concentration of 9 mM giving a yellow colour. Isothermal titration calorimetry (iTC200, from GE healthcare) was chosen as the method of choice for determining binding parameters. Each iTC200 run involved filling the cell with the protease (approximately 200 μL) and the syringe with the active site stabilizing agent (approximately 40 μL). Temperature was set as required and the protease was allowed to equilibrate under given experimental conditions (approximately 10 minutes). Typically 17-20 injections (of 2-2.5 μL) of active site stabilizing agent into the cell, containing protease, were performed. The first injection was always of 0.2 μL and was discarded from the final data analysis. Stirring speed was set between 700-1000 rpm. Filter period for data collection was 5 sec with a high feedback mode setting. Each titration was spaced by 120 sec. Raw data was processed to set the baseline, integrate each peak to get a final isotherm. This isotherm was fit to a single-site model to yield Kd, stoichiometry (n), ΔH, and ΔS values to complete characterization of binding of active site stabilizing agents to a protease. Each binding experiment was repeated at least twice. Tables 14, 15 and 16 summarizes binding of active site binding agents to SF-FVIIa and Vatreptacog alfa under varying solution conditions as described below.
On the technique in general: Isothermal titration calorimetry measures the heat released or taken up as one component is titrated into another.

A further experiment deals with T2, rFVIIa (Homo sapiens, UniProt P08709).
T2 construct: made in house
T2 sequence (P08709 213-466 limits assumed): T1 sequence (P08709 213-466 limits assumed)
T2 sequence (P08709 61-212 limits assumed): T1 sequence (P08709 61-212 limits assumed)
Description: Isothermal titration calorimetry (iTC200) binding to rFVIIa. As to conditions: for Kd: binding buffer. As to the method:
as §1

For the next experiment, the target named is T3, V158D/E296V/M298Q-FVIIa (Homo sapiens, UniProt P08709, E356V/M358Q/V218D).
T3 construct: made in house
T3 sequence (P08709 213-466 V218D/E356V/M358Q limits assumed): T1 sequence (P08709 213-466 limits assumed) with V6D, E144V, M146Q
T3 sequence (P08709 61-212 limits assumed): T1 sequence (P08709 61-212 limits assumed)
Description: Isothermal titration calorimetry (iTC200) binding to V158D/E296V/M298Q-FVIIa. As to the method:
as §1

Experiment [1] deals with tail bleeding in F8-KO mice. Put plainly: Tail bleeding in FVIII knock out (F8-KO) mice. As to conditions: dose 3 mg/kg i.v. The experiment is classed as in vivo. From the text: The biological in vivo efficacy and potency of recombinant factor VIIa (rFVIIa) co-formulated with the active site stabilizing agent with Formula I in the molar ratio 1:[…]; 2.5; 5; […] in FVIII knock out (F8-KO) mice (Bi L, Sarkar R, Naas T, Lawler A M, Pain J, Shumaker S L et al. Further characterization of factor VIII-deficient mice created by gene targeting: RNA and protein studies. Blood 1996; 88:3446-).
Tail bleeding was initiated in Isofluran anesthetized F8-KO mice by transection of 4 mm of the tip of the tail 5 min after dosing rFVIIa, rFVIIa:active site stabilizing agent (1:1.75) or vehicle iv in a tail vein in the mice. Bleeding time and blood loss was measured for a 30 minutes period in 37° C. saline as described elsewhere (Elm T; Karpf D M; Øvlisen K; Pelzer H; Ezban M; Kjalke M; Tranholm M. Pharmacokinetics and pharmacodynamics of a new recombinant FVIII (N8) in haemophilia A mice. Haemophilia, 2012; 18 (1), 139-145). […] The bleeding time vs dose of rFVIIa and rFVIIa:active site stabilizing agent (1:1.75) show very similar dose response curves.
The in vivo effect of serum free recombinant FVIIa (SF-rFVIIa) and SF-rFVIIa co-formulated with the active site stabilizing agent set forth in Formula I in the molar ratio 1:2.5 was studied with the same design in the tail bleeding model in F8-KO mice at the concentration 1; 2.5; 5; 10 and 15 mg/kg. […]

Setting [2] is: iTC200, binding buffer pH 7.4, 20° C.

Substitutions are numbered along the chain they refer to.

The text below walks through data of patent US20150273027A1, “LIQUID PHARMACEUTICAL COMPOSITION OF FACTOR VII POLYPEPTIDE” (Novo Nordisk Healthcare AG, priority 2012, published 2015).

As to `N=C(N)c1ccc2[nH]c(-c3cc(CC(=O)N[C@@H](CC(=O)O)C(=O)O)cc(-c4cc(S(N)(=O)=O)ccc4O)c3O)nc2c1` [Formula I, (S)-2-{2-[5-(5-carbamimidoyl-1H-benzoimidazol-2-yl)-6,2′-dihydroxy-5′-sulfamoyl-biphenyl-3-yl]acetylamino}-succinic acid], the “fold difference in binding at 20° C. and 37° C.” value is 17 fold on SF-rFVIIa (SF-FVIIa), 23 fold on rFVIIa and 21 fold at V158D/E296V/M298Q-FVIIa. The Kd stood at 334 nM at SF-rFVIIa (binding buffer, 37° C.); 20 nM at SF-rFVIIa (setting [2]); 1560 nM on SF-rFVIIa (pH 5.5, 20° C.); 43 nM on SF-rFVIIa (pH 6.5, 20° C.); 130 nM on SF-rFVIIa (pH 8.5, 20° C.); 12.9 nM at rFVIIa (20° C.). Also, the Kd is 296 nM on rFVIIa (37° C.); 2.18 nM at V158D/E296V/M298Q-FVIIa (binding buffer pH 7.4, 20° C.); 46 nM on V158D/E296V/M298Q-FVIIa (binding buffer, 37° C.); 77 nM at V158D/E296V/M298Q-FVIIa (pH 5.5, 20° C.); 9 nM on V158D/E296V/M298Q-FVIIa (pH 6.5, 20° C.); 6 nM on V158D/E296V/M298Q-FVIIa (pH 8.5, 20° C.).
As to `N=C(N)c1ccc2[nH]c(-c3cc(CC(=O)N[C@H](CC(=O)O)C(=O)O)cc(-c4cc(S(N)(=O)=O)ccc4O)c3O)nc2c1` [Formula II, (R)-2-{2-[5-(5-carbamimidoyl-1H-benzoimidazol-2-yl)-6,2′-dihydroxy-5′-sulfamoyl-biphenyl-3-yl]acetylamino}-succinic acid], binding at SF-rFVIIa (setting [2]) was characterised by a dissociation constant (Kd) of 12 nM.
As to “Vatreptacog Alfa: FVIIa sequence variant, V158D/E296V/M298Q-FVII, three amino acids of the wild-type human sequence replaced”, the “In vivo tail bleeding as blood loss, mean” value in experiment [1] came out at 1207 nmol haemoglobin.
Molecule `COc1cccc([C@H](C)NC(=O)CNC(=O)Nc2ccc(C(=N)N)cc2)c1` [Formula A, S-2-[3-(4-Carbamimidoylphenyl)ureido]-N-[1-(3-methoxyphenyl)-ethyl]-acetamide, reference compound] returned a Kd at SF-rFVIIa (setting [2]) of 1780 nM.

The term Kd denotes the concentration at which binding is half-saturated.
